# Test results as given in ChEMBL document CHEMBL4800729 (2021).
# Calls of active or inactive are those of the source. The calls are words filed in the database; no cut-off is given here.
# Assays:
# [1] = biological target: Tyrosine-protein kinase Srms (Homo sapiens) (UniProt Q9H3Y6); assay: SRMS(h) Millipore kinase panel; conditions: Compound concentration 1.0 uM
# [2] = biological target: Monoamine oxidase B (MAO-B) (Homo sapiens, UniProt P27338); assay: Inhibition of Monoamine Oxidase MAO-B at compound concentration of 10.0 uM in the Eurofins-Panlabs enzyme assay (Eurofins_assay_140120); design: substrate with concentration 50 uM Kynuramine, incubation time 60 min, incubation temperature 37 C; conditions: recombinant human MAO-B expressed in insect Hi5 cells, probe Kynuramine (50 uM), compound concentration 10 uM
# [3] = biological target: Mast/stem cell growth factor receptor Kit (Homo sapiens) (UniProt P10721); assay: cKit(h) Millipore kinase panel; conditions: Compound concentration 1.0 uM
# [4] = biological target: Serine/threonine-protein kinase PAK 5 (Homo sapiens) (UniProt Q9P286); assay: PAK5(h) Millipore kinase panel; conditions: Compound concentration 1.0 uM
# [5] = biological target: Serine/threonine-protein kinase NLK (Homo sapiens) (UniProt Q9UBE8); assay: NLK(h) Millipore kinase panel; conditions: Compound concentration 1.0 uM
# [6] = biological target: Cytoplasmic tyrosine-protein kinase BMX (Homo sapiens) (UniProt P51813); assay: Bmx(h) Millipore kinase panel; conditions: Compound concentration 1.0 uM
# [7] = biological target: T1, Alpha-2C adrenergic receptor (Homo sapiens) (UniProt P18825); conditions: Compound concentration 10.0 uM
# T1 sequence (whole entry): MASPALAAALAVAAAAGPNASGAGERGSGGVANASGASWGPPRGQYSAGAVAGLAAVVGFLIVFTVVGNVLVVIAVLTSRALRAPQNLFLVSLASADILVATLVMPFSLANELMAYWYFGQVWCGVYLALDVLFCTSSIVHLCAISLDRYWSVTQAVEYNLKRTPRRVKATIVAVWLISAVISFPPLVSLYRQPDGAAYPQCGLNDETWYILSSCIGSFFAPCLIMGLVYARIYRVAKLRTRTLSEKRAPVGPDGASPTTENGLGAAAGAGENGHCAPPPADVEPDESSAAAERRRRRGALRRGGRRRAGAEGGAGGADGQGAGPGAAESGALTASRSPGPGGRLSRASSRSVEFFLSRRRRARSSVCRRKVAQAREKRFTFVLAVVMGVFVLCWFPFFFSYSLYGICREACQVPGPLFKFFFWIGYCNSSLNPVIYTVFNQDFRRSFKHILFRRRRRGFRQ
# [8] = biological target: Muscarinic acetylcholine receptor M3 (Homo sapiens) (UniProt P20309); conditions: Compound concentration 10.0 uM
# [9] = biological target: T2, 5-hydroxytryptamine receptor 2B (Homo sapiens, UniProt P41595); conditions: Compound concentration 10.0 uM
# [10] = biological target: T2, 5-hydroxytryptamine receptor 2B; assay: GPCRScan assay: inhibition of 5-HT2B; design: radioligand conc. used [nm] 1.0 – 2.0, parental cells stable HEK
# [11] = biological target: Tyrosine-protein kinase Mer (Homo sapiens) (UniProt Q12866); assay: Mer(h) Millipore kinase panel; conditions: Compound concentration 1.0 uM
# [12] = biological target: T3, Muscarinic acetylcholine receptor M1 (Homo sapiens) (UniProt P11229); conditions: Compound concentration 10.0 uM
# T3 sequence (whole entry): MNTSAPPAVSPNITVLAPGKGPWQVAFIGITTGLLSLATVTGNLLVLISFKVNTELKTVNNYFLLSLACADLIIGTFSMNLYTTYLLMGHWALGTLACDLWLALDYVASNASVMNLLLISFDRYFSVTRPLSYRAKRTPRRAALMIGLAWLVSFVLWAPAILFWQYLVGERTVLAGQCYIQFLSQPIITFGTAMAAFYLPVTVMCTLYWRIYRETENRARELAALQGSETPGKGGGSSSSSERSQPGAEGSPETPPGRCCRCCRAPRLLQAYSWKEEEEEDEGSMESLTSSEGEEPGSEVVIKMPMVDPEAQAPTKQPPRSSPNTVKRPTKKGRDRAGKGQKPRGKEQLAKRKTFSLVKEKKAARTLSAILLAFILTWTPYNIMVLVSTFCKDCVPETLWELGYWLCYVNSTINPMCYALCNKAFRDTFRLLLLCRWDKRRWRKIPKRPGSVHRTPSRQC
# [13] = biological target: Calcium/calmodulin-dependent protein kinase kinase 1 (Homo sapiens) (UniProt Q8N5S9); assay: CaMKK1(h) Millipore kinase panel; conditions: Compound concentration 1.0 uM
# [14] = biological target: Casein kinase II subunit alpha' (Homo sapiens) (UniProt P19784); assay: CK2alpha2(h) Millipore kinase panel; conditions: Compound concentration 1.0 uM
# [15] = biological target: Angiopoietin-1 receptor (Homo sapiens) (UniProt Q02763); assay: Tie2(h) Millipore kinase panel; conditions: Compound concentration 1.0 uM
# [16] = biological target: NT-3 growth factor receptor (Homo sapiens) (UniProt Q16288); assay: TrkC(h) Millipore kinase panel; conditions: Compound concentration 1.0 uM
# [17] = biological target: Serine/threonine-protein kinase PRP4 homolog (Homo sapiens) (UniProt Q13523); assay: PRP4(h) Millipore kinase panel; conditions: Compound concentration 1.0 uM
# [18] = species: Rattus norvegicus; conditions: Compound concentration 10.0 uM
# [19] = species: Homo sapiens; assay: CDK9/cyclinT1(h) Millipore kinase panel; conditions: Compound concentration 1.0 uM
# [20] = biological target: Calcium/calmodulin-dependent protein kinase type 1D (Homo sapiens) (UniProt Q8IU85); assay: CaMKIdelta(h) Millipore kinase panel; conditions: Compound concentration 1.0 uM
# [21] = biological target: Protein kinase C beta type (Homo sapiens) (UniProt P05771); assay: PKCbetaI(h) Millipore kinase panel; conditions: Compound concentration 1.0 uM
# [22] = biological target: Tau-tubulin kinase 1 (Homo sapiens) (UniProt Q5TCY1); assay: TTBK1(h) Millipore kinase panel; conditions: Compound concentration 1.0 uM
# [23] = biological target: Serine/threonine-protein kinase Nek4 (Homo sapiens) (UniProt P51957); assay: NEK4(h) Millipore kinase panel; conditions: Compound concentration 1.0 uM
# [24] = biological target: Glucocorticoid receptor (Homo sapiens) (UniProt P04150); conditions: Compound concentration 10.0 uM
# [25] = biological target: Serine/threonine-protein kinase 4 (Homo sapiens) (UniProt Q13043); assay: MST1(h) Millipore kinase panel; conditions: Compound concentration 1.0 uM
# [26] = biological target: Mu-type opioid receptor (Homo sapiens) (UniProt P35372); conditions: Compound concentration 10.0 uM
# [27] = biological target: 5'-AMP-activated protein kinase catalytic subunit alpha-2 (Homo sapiens) (UniProt P54646); assay: AMPKalpha2(h) Millipore kinase panel; conditions: Compound concentration 1.0 uM
# [28] = biological target: Delta-type opioid receptor (Homo sapiens) (UniProt P41143); conditions: Compound concentration 10.0 uM
# [29] = biological target: Estrogen receptor (Homo sapiens) (UniProt P03372); conditions: Compound concentration 10.0 uM
# [30] = biological target: cGMP-dependent protein kinase 2 (Homo sapiens) (UniProt Q13237); assay: PRKG2(h) Millipore kinase panel; conditions: Compound concentration 1.0 uM
# [31] = biological target: Ribosomal protein S6 kinase alpha-1 (Homo sapiens) (UniProt Q15418); assay: Rsk1(h) Millipore kinase panel; conditions: Compound concentration 1.0 uM
# [32] = biological target: Serine/threonine-protein kinase VRK2 (Homo sapiens) (UniProt Q86Y07); assay: VRK2(h) Millipore kinase panel; conditions: Compound concentration 1.0 uM
# [33] = biological target: Acetylcholinesterase (Homo sapiens) (UniProt P22303); conditions: Compound concentration 10.0 uM
# [34] = biological target: CDK12/Cyclin K (Homo sapiens) (UniProt O75909+Q9NYV4); assay: CDK12/cyclinK(h) Millipore kinase panel; type: protein-complex assay; conditions: Compound concentration 1.0 uM
# [35] = biological target: Cyclin-dependent kinase 2/cyclin E (Homo sapiens) (UniProt P24864+P24941+O96020); assay: CDK2/cyclinE(h) Millipore kinase panel; type: protein-complex assay; conditions: Compound concentration 1.0 uM
# T2 sequence (P41595 whole entry): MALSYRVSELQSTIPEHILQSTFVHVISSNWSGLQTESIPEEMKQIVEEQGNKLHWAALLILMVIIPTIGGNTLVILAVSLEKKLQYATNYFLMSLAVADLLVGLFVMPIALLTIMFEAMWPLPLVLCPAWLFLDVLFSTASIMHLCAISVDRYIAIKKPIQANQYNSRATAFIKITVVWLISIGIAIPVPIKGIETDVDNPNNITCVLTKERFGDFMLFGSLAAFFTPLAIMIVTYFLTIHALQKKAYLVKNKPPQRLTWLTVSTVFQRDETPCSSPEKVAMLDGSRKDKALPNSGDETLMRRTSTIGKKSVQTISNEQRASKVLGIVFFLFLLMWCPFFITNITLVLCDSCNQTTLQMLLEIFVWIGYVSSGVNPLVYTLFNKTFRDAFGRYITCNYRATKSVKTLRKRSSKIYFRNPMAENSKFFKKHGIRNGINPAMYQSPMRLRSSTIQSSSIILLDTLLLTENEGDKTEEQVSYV
# 5'-AMP-activated protein kinase catalytic subunit alpha-2 (Homo sapiens), sequence (P54646 whole entry, looked up): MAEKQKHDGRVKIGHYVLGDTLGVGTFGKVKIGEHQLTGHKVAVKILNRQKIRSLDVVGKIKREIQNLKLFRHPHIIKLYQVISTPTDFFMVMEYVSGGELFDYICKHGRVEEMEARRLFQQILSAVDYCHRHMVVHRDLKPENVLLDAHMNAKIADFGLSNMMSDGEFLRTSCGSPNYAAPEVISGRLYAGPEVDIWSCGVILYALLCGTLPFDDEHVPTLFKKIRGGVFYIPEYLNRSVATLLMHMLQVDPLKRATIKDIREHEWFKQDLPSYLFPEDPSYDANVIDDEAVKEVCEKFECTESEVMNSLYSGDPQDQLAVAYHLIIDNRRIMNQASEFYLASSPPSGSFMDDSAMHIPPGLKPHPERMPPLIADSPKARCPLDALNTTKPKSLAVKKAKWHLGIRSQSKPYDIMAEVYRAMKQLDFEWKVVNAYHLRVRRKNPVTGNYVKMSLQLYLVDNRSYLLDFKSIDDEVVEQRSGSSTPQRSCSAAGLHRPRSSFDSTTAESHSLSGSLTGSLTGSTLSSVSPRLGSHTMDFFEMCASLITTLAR
# Muscarinic acetylcholine receptor M3 (Homo sapiens), sequence (P20309 whole entry, looked up): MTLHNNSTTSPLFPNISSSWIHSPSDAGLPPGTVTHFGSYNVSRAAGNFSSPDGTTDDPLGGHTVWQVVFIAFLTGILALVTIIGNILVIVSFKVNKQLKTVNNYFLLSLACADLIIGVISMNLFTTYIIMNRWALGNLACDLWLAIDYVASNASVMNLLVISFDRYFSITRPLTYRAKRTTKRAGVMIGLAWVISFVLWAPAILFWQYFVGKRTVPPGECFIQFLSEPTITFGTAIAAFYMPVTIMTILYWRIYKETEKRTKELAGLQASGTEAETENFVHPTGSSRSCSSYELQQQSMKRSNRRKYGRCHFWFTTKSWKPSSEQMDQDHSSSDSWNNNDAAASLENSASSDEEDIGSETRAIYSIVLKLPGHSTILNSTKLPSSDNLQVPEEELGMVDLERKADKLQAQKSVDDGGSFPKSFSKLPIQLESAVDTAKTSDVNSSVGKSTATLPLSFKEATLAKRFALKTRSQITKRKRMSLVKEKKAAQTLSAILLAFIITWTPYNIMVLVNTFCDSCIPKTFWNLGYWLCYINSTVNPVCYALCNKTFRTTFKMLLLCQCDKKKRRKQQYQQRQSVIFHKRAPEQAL
# Delta-type opioid receptor (Homo sapiens), sequence (P41143 whole entry): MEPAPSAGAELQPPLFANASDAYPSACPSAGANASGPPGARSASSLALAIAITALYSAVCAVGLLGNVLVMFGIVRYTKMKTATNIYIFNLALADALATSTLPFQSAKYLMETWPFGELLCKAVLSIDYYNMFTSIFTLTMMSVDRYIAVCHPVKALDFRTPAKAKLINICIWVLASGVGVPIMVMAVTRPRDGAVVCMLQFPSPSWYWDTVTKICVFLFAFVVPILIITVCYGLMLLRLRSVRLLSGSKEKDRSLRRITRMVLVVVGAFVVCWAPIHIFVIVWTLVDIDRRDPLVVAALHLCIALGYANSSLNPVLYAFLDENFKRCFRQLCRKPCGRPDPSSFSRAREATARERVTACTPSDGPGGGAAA
# Calcium/calmodulin-dependent protein kinase type 1D (Homo sapiens), sequence (Q8IU85 whole entry, looked up): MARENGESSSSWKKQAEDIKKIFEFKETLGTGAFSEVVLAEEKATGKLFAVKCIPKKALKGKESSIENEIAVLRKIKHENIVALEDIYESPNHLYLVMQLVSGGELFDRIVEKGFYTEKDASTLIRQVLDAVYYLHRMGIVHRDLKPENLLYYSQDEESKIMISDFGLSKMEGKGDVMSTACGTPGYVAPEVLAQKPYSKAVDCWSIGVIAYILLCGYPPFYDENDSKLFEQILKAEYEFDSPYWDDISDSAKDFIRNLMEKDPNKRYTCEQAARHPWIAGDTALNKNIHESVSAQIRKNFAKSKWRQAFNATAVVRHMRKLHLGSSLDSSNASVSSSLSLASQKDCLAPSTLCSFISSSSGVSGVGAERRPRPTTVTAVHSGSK
# Serine/threonine-protein kinase Nek4 (Homo sapiens), sequence (P51957 whole entry, looked up): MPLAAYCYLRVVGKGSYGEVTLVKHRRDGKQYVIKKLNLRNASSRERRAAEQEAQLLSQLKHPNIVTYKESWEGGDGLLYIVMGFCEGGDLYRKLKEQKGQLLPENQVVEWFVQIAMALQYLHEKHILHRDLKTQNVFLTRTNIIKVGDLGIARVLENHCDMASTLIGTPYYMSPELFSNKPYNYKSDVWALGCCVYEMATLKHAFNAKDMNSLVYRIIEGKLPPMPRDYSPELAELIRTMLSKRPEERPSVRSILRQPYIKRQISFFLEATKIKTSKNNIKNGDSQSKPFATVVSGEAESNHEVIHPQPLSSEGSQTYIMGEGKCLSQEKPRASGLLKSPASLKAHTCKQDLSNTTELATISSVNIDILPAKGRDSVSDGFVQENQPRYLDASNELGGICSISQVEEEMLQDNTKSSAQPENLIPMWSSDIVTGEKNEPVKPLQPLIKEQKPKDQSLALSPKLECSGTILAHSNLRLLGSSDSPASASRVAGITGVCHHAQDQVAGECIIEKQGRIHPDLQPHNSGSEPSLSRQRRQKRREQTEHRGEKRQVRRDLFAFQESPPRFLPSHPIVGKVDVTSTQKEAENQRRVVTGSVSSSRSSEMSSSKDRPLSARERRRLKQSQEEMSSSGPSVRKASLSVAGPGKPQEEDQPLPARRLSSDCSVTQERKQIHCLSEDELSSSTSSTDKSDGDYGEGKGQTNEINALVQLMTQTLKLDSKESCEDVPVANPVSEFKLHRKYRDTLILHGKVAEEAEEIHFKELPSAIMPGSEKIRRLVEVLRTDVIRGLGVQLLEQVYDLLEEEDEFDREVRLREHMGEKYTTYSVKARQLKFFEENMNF
# Mu-type opioid receptor (Homo sapiens), sequence (P35372 whole entry): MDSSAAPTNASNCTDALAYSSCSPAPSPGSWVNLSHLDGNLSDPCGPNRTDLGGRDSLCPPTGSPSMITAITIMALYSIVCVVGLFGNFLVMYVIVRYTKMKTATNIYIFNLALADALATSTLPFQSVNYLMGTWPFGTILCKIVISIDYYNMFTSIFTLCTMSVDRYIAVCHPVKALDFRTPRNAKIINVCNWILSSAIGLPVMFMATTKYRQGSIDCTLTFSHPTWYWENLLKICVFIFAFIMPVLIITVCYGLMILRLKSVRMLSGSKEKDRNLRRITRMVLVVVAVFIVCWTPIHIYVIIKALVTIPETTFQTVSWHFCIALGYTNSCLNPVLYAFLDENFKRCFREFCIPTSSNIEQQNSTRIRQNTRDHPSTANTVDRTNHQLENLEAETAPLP
# Acetylcholinesterase (Homo sapiens), sequence (P22303 whole entry): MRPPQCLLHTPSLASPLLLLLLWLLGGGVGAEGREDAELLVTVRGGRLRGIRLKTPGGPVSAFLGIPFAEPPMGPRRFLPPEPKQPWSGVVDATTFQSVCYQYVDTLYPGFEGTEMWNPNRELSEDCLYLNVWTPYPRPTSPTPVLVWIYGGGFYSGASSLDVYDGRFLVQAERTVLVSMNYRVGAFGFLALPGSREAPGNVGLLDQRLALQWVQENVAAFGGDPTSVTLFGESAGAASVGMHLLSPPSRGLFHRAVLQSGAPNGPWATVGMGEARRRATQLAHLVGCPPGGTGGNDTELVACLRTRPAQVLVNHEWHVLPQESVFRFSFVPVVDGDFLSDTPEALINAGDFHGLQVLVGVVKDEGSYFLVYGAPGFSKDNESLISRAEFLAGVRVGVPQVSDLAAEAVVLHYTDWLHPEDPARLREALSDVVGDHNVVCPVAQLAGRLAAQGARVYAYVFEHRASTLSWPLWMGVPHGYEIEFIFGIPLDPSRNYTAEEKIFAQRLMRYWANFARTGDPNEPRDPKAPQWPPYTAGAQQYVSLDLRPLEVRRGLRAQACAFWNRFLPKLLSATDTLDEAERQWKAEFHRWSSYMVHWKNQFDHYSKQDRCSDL
# Estrogen receptor (Homo sapiens), sequence (P03372 whole entry): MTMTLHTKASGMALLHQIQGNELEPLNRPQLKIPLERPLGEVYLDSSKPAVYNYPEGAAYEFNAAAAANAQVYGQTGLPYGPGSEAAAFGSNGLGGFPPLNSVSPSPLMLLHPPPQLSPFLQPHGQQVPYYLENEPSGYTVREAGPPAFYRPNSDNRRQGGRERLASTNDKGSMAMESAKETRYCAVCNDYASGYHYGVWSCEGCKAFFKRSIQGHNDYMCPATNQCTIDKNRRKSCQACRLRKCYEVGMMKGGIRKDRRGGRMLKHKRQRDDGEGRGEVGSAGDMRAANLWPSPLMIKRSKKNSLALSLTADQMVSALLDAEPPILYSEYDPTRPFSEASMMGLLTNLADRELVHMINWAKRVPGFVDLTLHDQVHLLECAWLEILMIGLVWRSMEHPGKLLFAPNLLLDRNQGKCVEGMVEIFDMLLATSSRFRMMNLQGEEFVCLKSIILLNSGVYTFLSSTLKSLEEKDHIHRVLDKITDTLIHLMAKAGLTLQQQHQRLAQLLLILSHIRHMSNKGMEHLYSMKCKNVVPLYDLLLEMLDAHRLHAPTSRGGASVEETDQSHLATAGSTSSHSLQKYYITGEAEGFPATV
smiles,measurement,setting,value
CC[C@@H](Nc1c(C#N)c(-c2ccc(-c3cccc(C)c3F)cc2)nc2cnccc12)C(=O)O [BAY-091],inhibition,[1],26.3%
same,"inhibition at 60 min, 10 µM",[2],81% (active)
same,inhibition,[3],22.3%
same,inhibition,[4],1.42%
same,inhibition,[5],8.59%
same,inhibition,[6],3.69%
same,inhibition,[7],-6.87%
same,inhibition,[8],-8.52%
same,inhibition,[9],98%
same,Ki,[10],1500 nM
same,inhibition,[11],10.2%
same,inhibition,[12],-5.6%
same,inhibition,[13],5.03%
same,inhibition,[14],-4.36%
same,inhibition,[15],12.8%
same,inhibition,[16],14.8%
same,inhibition,[17],18.9%
same,inhibition,[18],1%
same,inhibition,[19],11.8%
same,inhibition,[20],4.68%
same,inhibition,[21],16.5%
same,inhibition,[22],-2.05%
same,inhibition,[23],32.1%
same,inhibition,[24],32%
same,inhibition,[25],20.6%
same,inhibition,[26],1.43%
same,inhibition,[27],-5.39%
same,inhibition,[28],25%
same,inhibition,[29],10%
same,inhibition,[30],12.7%
same,inhibition,[31],-6.03%
same,inhibition,[32],4.1%
same,inhibition,[33],27%
same,inhibition,[34],10.3%
same,inhibition,[35],7.13%
